Among the test systems are 786-0 renal; A549 NSCLC; HOP-62 NSCLC; MOLT-4 leukemia; OVCAR-3 ovarian; SF-268 CNS; SNB-19 CNS; SR leukemia; SK-MEL-2 melanoma; DU-145 prostate.
Assay in all cases: NCI-60 cell line screen, 48 h

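1) Cells in 96-well plates. 2) Compound, 48 h, 5 concentrations. 3) Linear interpolation between surrounding doses. 4) Unreached endpoint = highest concentration. The concentration for 50% growth inhibition is given as GI50. TGI is the concentration that stops growth completely.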 Where a SMILES comes first, the peptide text is derived from it. [ ]: non-standard residue; d: D form. The star is where a group is joined. NMeF = CN[CH](Cc1ccccc1)C(=O)O; NMeV = CN[CH](C(=O)O)C(C)C; Boc = CC(C)(C)OC(=O)*; OBn = c1ccc(CO*)cc1

With `CC(C)C(NC(=O)OC(C)(C)C)C(=O)N(C)C(Cc1ccccc1)C(=O)N(C)C(C(=O)N(C)C(C(=O)OCc1ccccc1)C(C)C)C(C)C` (centres undefined) (Boc-V[NMeF][NMeV][NMeV]-OBn; configuration not given here), the TGI in the test with 786-0 renal, in the test on A549 NSCLC, in the test with HOP-62 NSCLC, in the test with MOLT-4 leukemia, in the test with OVCAR-3 ovarian and in the test on SF-268 CNS was over 100 µM each time. For the same molecule, the TGI in the test on SNB-19 CNS and in the test on SR leukemia was over 100 µM each time.

`Cc1cn(C2C=CC(=O)C(C)O2)c(=O)[nH]c1=O` (centres undefined): the TGI in the test on 786-0 renal was 32.2 µM; in the test with A549 NSCLC, over 100 µM; in the test with HOP-62 NSCLC, 43.2 µM; in the test on MOLT-4 leukemia, 40.9 µM; in the test with OVCAR-3 ovarian it was 31.4 µM; in the test on SF-268 CNS it was 33.5 µM. Also, the TGI in the test on SNB-19 CNS was 43.9 µM; in the test with SR leukemia it was 43.8 µM.

For the molecule `CC(C)C(/C=C/c1ccccc1)=N\NC(=O)N/N=C(/C=C/c1ccccc1)C(C)C`, the TGI with 786-0 renal is 41.9 µM; with A549 NSCLC, over 100 µM; with HOP-62 NSCLC it was over 100 µM; with MOLT-4 leukemia, 54.3 µM; in the test on SF-268 CNS it was over 100 µM; in the test on SK-MEL-2 melanoma, 52 µM. The TGI in the test with SNB-19 CNS is over 100 µM; with SR leukemia, 87.2 µM.

With `N/C(=N\OC(=O)NC(Cl)=C(Cl)Cl)c1cc(C(F)(F)F)cc(C(F)(F)F)c1`, the TGI in the test on 786-0 renal worked out at 31.2 µM; in the test on A549 NSCLC it was 30.4 µM; in the test on DU-145 prostate it was 27 µM; with HOP-62 NSCLC it was 34.2 µM; in the test on MOLT-4 leukemia, 29.6 µM; in the test with OVCAR-3 ovarian it was 28.6 µM. The values for the TGI in the test on SF-268 CNS, with SNB-19 CNS and with SR leukemia were 45.6 µM, 50.5 µM and 26.2 µM, respectively.

Turning to `COc1cc(/C=C/C(=O)c2c(C)n([O-])c3cc(C)c(C)cc3[n+]2=O)cc(OC)c1OC`, the GI50 in the test with 786-0 renal is 19.2 µM; in the test with DU-145 prostate, 13.1 µM; in the test with HOP-62 NSCLC it was 20.2 µM; in the test on MOLT-4 leukemia, 6.77 µM; with OVCAR-3 ovarian, 16.8 µM; in the test with SF-268 CNS it was 12.5 µM. Further, the GI50 was 16.4 µM in the test on SK-MEL-2 melanoma, 16.9 µM in the test on SNB-19 CNS and 13.4 µM in the test on SR leukemia. In addition, the TGI in the test on 786-0 renal was 46.1 µM; in the test on DU-145 prostate it was 30.8 µM; with HOP-62 NSCLC, 58.2 µM; in the test with MOLT-4 leukemia, over 100 µM; in the test with OVCAR-3 ovarian, 41.6 µM; in the test with SF-268 CNS, 32.3 µM. For the same molecule, the TGI was 32.9 µM in the test with SK-MEL-2 melanoma, 39.9 µM in the test with SNB-19 CNS and over 100 µM in the test with SR leukemia.

For the molecule `COc1cc(NCC(C#N)C#N)ccc1N=Nc1ccc([N+](=O)[O-])cc1`, the TGI with 786-0 renal, in the test with A549 NSCLC, in the test on HOP-62 NSCLC, in the test with MOLT-4 leukemia, in the test with OVCAR-3 ovarian and with SF-268 CNS was over 100 µM in each case. Further, the TGI in the test on SK-MEL-2 melanoma, in the test with SNB-19 CNS and in the test with SR leukemia was over 100 µM throughout.

For the molecule `COc1cc2ccc(CC#N)cc2cc1OC`, the TGI in the test with 786-0 renal, with A549 NSCLC, in the test with HOP-62 NSCLC, with MOLT-4 leukemia, with SF-268 CNS and with SK-MEL-2 melanoma was over 100 µM each time. The TGI in the test on SNB-19 CNS and with SR leukemia was over 100 µM each time.

Take `O=C1c2c(c3c4ccccc4n4c3c3c2c2ccccc2n3C/C=C\C4)C(=O)N1Cc1ccccc1`: the TGI with 786-0 renal, in the test on A549 NSCLC, with HOP-62 NSCLC, in the test on MOLT-4 leukemia, in the test on OVCAR-3 ovarian and in the test with SNB-19 CNS was over 100 µM throughout. The TGI with SR leukemia was over 100 µM.

Consider `O=C1c2cnccc2Cc2cccc3c2N1c1ccccc1S3`, for which the TGI with 786-0 renal is 97.8 µM; in the test on A549 NSCLC, over 100 µM; with HOP-62 NSCLC, 57.2 µM; in the test with MOLT-4 leukemia, over 100 µM; with OVCAR-3 ovarian it was 44.5 µM; with SF-268 CNS, over 100 µM. The TGI in the test on SK-MEL-2 melanoma came to 32.5 µM; with SNB-19 CNS, 74.6 µM; with SR leukemia, 34.8 µM.

`COc1ccc(/C=C/c2nc(N3CCOCC3)c3cc(F)c(F)cc3n2)cc1OC`: the GI50 with 786-0 renal is 4.44 µM; with A549 NSCLC it was 5.87 µM; in the test on DU-145 prostate, 8.79 µM; with HOP-62 NSCLC, 50.7 µM; in the test on MOLT-4 leukemia it was 4.11 µM; in the test on OVCAR-3 ovarian, 6.08 µM. The results for the GI50 in the test on SF-268 CNS, in the test with SK-MEL-2 melanoma and in the test on SNB-19 CNS were 9.85 µM, 9.48 µM and 5.2 µM, respectively. In addition, the TGI in the test on 786-0 renal, in the test on A549 NSCLC, with DU-145 prostate, in the test on HOP-62 NSCLC, in the test on MOLT-4 leukemia and in the test with OVCAR-3 ovarian was over 100 µM throughout. Further, the TGI in the test with SF-268 CNS, in the test on SK-MEL-2 melanoma and in the test with SNB-19 CNS was over 100 µM in each case.

Regarding `CC(=O)Nc1ccc(-c2nnc(SCC(=O)Nc3ccccc3[N+](=O)[O-])o2)cc1`, the TGI in the test on 786-0 renal, in the test on A549 NSCLC, in the test on HOP-62 NSCLC, with MOLT-4 leukemia, with OVCAR-3 ovarian and in the test on SF-268 CNS was over 100 µM in each case. The TGI in the test on SK-MEL-2 melanoma and in the test on SR leukemia was over 100 µM in each case.

For the molecule `O=C1C[C@@H](c2ccccc2)NCCCCN(O)CCCN1`, the TGI in the test on 786-0 renal, in the test on A549 NSCLC, with DU-145 prostate, in the test with HOP-62 NSCLC, in the test on MOLT-4 leukemia and with OVCAR-3 ovarian was over 100 µM in each case. The TGI with SF-268 CNS, in the test on SK-MEL-2 melanoma and with SNB-19 CNS was over 100 µM in each case.
